Assay [1] has as its system apomorphine climbing. The assay is described as follows: climbing mice assay (antipsychotic activity, apomorphine-induced climbing). The class given is in vivo, mice (CK-1 male). The following applies: Mus musculus, po, apomorphine 1.5 mg/kg sc challenge. The procedure: Antipsychotic activity is determined in the climbing mice assay by a method similar to those described by P. Protais, et al., Psychopharmacol., 50, 1 (1976) and B. Costall, Eur. J. Pharmacol., 50, 39 (1978).
The subject CK-1 male mice (23-27 grams) are group-housed under standard laboratory conditions. The mice are individually placed in wire mesh stick cages (4"×4"×10") and are allowed one hour for adaptation and exploration of the new environment. Then apomorphine is injected subcutaneously at 1.5 mg/kg, a dose causing climbing in all subjects for 30 minutes. Compounds to be tested for antipsychotic activity are injected intraperitoneally or given oral doses at various time intervals, e.g. 30 minutes, 60 minutes, etc. prior to the apomorphine challenge at a screening dose of 10-60 mg/kg.
For evaluation of climbing, 3 readings are taken at 10, 20 and 30 minutes after apomorphine administration according to the following scale:
4 paws on bottom (no climbing)
2 paws on the wall (rearing)
4 paws on the wall (full climb)
Mice consistently climbing before the injection of apomorphine will be discarded.
With full-developed apomorphine climbing, the animals are hanging on to the cage walls, rather motionless, over longer periods of time. By contrast, climbs due to mere motor stimulation usually only last a few seconds.
The climbing scores are individually totaled (maximal score: 6 per mouse over 3 readings) and the total score of the control group (vehicle intraperitoneally--apomorphine subcutaneously) is set to 100%. ED50 values with 95% confidence limits, calculated by a Linear Regression Analysis, of some of the instant benzopyrrolobenzodiazepines as well as a standard antipsychotic agent are presented in Table 1.

The subject of assay [2] is phenylquinone induced writhing. Description: phenyl-p-quinone writhing assay in mice (analgesia). Format: in vivo. Conditions: Mus musculus, sc, dose for approximately 50% inhibition of writhing. An excerpt: Some of the benzopyrrolobenzodiazepines and quinobenzodiazepines of the present invention are also useful as analgetics due to their ability to alleviate pain in mammals. […] Exptl. Biol Med., 95 729 (1957)]. Thus, for instance, the subcutaneous dose effecting an approximately 50% inhibition of writhing (ED50) in mice produced in this assay is as shown in Table 2.

Counter-ions that a name gives are not always drawn.

`CN1CCN(C2=Nc3ccccc3-n3ccc4cc(Cl)cc2c43)CC1` [4-Chloro-6-(4-methyl-1-piperazinyl)benzo[b]pyrrolo[3,2,1-jk][1,4]benzodiazepine] had an ED50 in assay [1] of 13.4 mg/kg. For the compound `CN1CCN(C2=Nc3cc(Br)ccc3N3CCc4cccc2c43)CC1` [9-Bromo-6-(4-methyl-1-piperazinyl)-1,2-dihydrobenzo[b]pyrrolo[3,2,1-jk][1,4]benzodiazepine], in assay [1], the ED50 amounted to 30.8 mg/kg. Regarding `CN1CCN(C2=Nc3cc(Br)ccc3-n3ccc4cccc2c43)CC1` [9-Bromo-6-(4-methyl-1-piperazinyl)benzo[b]pyrrolo[3,2,1-jk][1,4]benzodiazepine], the ED50 worked out at 13.5 mg/kg in assay [1] and 0.72 mg/kg in assay [2]. With `CN(C)CCN(C)C1=Nc2cc(Br)ccc2N2CCc3cccc1c32` [9-Bromo-6-[(2-dimethylamino)-N-methylethylamino]-1,2-dihydrobenzo[b]pyrrolo[3,2,1-jk][1,4]benzodiazepine Dimaleate salt], the 50% effect level in assay [2] (ED50) was put at a dose of 8.1 mg/kg. `Cc1ccc2c(c1)N=C(N1CCN(C)CC1)c1cccc3c1N2CC3` [9-Methyl-6-(4-methyl-1-piperazinyl)-1,2-dihydrobenzo[b]pyrrolo[3,2,1-jk][1,4]benzodiazepine]: the ED50 in assay [1] amounted to 25.5 mg/kg; in assay [2], 0.34 mg/kg. Turning to `CN1CCN(C2=Nc3cc(Cl)ccc3N3CCc4cccc2c43)CC1` [9-chloro-6-(4-methyl-1-piperazinyl)-1,2-dihydrobenzo[b]pyrrolo[3,2,1-jk][1,4]benzodiazepine], in assay [2], the 50% effective dose (ED50) came out at 4.1 mg/kg. In turn, `CN1CCN(C2=Nc3cc(Cl)ccc3Nc3ccccc32)CC1` [clozapine, reference compound] returned an ED50 in assay [1] of 23.2 mg/kg. In assay [2], `CCC(=O)O[C@](Cc1ccccc1)(c1ccccc1)[C@H](C)CN(C)C` [propoxyphene, reference compound] came in with an ED50 of 3.9 mg/kg.

For the origin of these results see patent publication US4663453A, “Benzo[b]pyrrolo[3,2,1-jk][1,4]benzodiazepines having dopamine receptor activity” (Hoechst-Roussel Pharmaceuticals Inc., priority 1985, dated 1987).
